Experimental findings from patent US9266883B2, “Ring-fused bicyclic pyridyl derivatives as FGFR4 inhibitors” (Novartis AG, priority 2013, dated 2016) are described below.

Assay [1] has as its target FGFR4 (GST-FGFR4(388-802)) (Homo sapiens (Human), UniProt P22455). In words: In-vitro biochemical kinase assay for FGFR4 (Caliper microfluidic mobility shift).
Another assay has as its target Tel-FGFR4 (Homo sapiens (Human), UniProt P22455). The assay can be described thus: In vitro cellular kinase assay for FGFR4 (BaF3-Tel-FGFR4 cells, MSD capture ELISA of tyrosine phosphorylation). It counts as cell-based. (In general: An ELISA detects its analyte on a solid surface through an enzyme-linked reagent.)
The mark [2] stands for this setting: biochemical FGFR4 assay, read-out: Biochemical IC50.
Setting [3] is: Cellular BaF3 FGFR4 assay, read-out: Cellular IC50.
[4] abbreviates: read-out: Biochemical FGFR4 IC50.
Setting [5] is: BaF3-Tel-FGFR4 cells, 1 hour incubation, read-out: Cellular BaF3 FGFR4 IC50.

Where “and” joins values, the source holds several entries; their conditions need not be identical. Equal values may be shown once. Read-outs that look alike come from different tables or passages of the source.

FGFR4 (GST-FGFR4(388-802)), sequence (P22455 388-802): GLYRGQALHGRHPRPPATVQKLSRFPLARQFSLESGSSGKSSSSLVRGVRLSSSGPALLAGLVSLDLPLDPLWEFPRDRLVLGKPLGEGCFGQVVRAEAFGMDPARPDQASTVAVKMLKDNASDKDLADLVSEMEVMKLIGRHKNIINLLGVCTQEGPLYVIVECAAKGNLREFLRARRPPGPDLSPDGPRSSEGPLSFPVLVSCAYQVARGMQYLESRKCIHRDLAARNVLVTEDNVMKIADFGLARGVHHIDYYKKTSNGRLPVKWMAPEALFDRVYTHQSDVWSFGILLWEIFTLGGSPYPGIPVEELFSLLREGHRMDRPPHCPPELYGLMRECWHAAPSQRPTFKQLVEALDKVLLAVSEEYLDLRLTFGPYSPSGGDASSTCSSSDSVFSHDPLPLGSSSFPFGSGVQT
Tel-FGFR4, sequence (P22455 other isoform, or with tags, fused parts or gaps): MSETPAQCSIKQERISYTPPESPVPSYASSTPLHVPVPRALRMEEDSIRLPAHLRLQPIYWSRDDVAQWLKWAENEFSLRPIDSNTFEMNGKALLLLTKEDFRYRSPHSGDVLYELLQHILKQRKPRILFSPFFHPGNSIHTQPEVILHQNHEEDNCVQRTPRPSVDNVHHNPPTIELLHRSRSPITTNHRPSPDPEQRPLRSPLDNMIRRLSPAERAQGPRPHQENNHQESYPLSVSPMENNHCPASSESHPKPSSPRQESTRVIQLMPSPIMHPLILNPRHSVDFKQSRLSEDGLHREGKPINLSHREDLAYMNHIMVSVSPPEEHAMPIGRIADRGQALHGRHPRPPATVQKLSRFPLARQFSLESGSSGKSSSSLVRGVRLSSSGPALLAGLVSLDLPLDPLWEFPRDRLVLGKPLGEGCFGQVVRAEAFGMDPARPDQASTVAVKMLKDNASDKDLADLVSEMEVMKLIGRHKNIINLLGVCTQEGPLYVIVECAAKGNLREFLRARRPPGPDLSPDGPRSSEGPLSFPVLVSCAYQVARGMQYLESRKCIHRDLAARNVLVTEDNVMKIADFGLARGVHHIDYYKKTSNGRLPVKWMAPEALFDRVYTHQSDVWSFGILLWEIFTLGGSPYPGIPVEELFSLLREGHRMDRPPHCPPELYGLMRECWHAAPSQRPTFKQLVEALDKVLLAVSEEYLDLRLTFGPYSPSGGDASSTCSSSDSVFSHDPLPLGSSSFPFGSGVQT

Take `COC[C@H](C)Nc1cc(NC(=O)N2CCCc3cc(CN4CCCC4=O)c(C=O)nc32)ncc1C#N` [(S)-N-(5-cyano-4-((1-methoxypropan-2-yl)amino)pyridin-2-yl)-7-formyl-6-((2-oxopyrrolidin-1-yl)methyl)-3,4-dihydro-1,8-naphthyridine-1(2H)-carboxamide]: the IC50 – broadly, the concentration that gives 50% inhibition – in assay [1] (setting [2]) came out at 1.9 nM; at Tel-FGFR4 (setting [3]) it was 4.9 nM.

As for `COC[C@H](C)Nc1cc(NC(=O)N2CCCc3cc(CN4CCOCC4=O)c(C=O)nc32)ncc1C#N` [(S)-N-(5-cyano-4-((1-methoxypropan-2-yl)amino)pyridin-2-yl)-7-formyl-6-((3-oxomorpholino)methyl)-3,4-dihydro-1,8-naphthyridine-1(2H)-carboxamide], the concentration for half-maximal inhibition (IC50) in assay [1] (setting [2]) stood at 2.5 nM; on Tel-FGFR4 (setting [3]), 5.7 nM.

On to `COC[C@H](C)Nc1cc(NC(=O)N2CCCc3cc(CN(C)C(C)=O)c(C=O)nc32)ncc1C#N` [(S)-N-(5-cyano-4-((1-methoxypropan-2-yl)amino)pyridin-2-yl)-7-formyl-6-((N-methylacetamido)methyl)-3,4-dihydro-1,8-naphthyridine-1(2H)-carboxamide], for which the half-inhibitory concentration (IC50) in assay [1] (setting [2]) was 1 nM; at Tel-FGFR4 (setting [3]), 4.2 nM.

Regarding `COC[C@H](C)Oc1cc(NC(=O)N2CCCc3cc(CN4CCCC4=O)c(C=O)nc32)ncc1C#N` [(S)-N-(5-cyano-4-((1-methoxypropan-2-yl)oxy)pyridin-2-yl)-7-formyl-6-((2-oxopyrrolidin-1-yl)methyl)-3,4-dihydro-1,8-naphthyridine-1(2H)-carboxamide], the IC50 in assay [1] (setting [2]) came to 4.6 nM; on Tel-FGFR4 (setting [3]), 7.6 nM.

Consider `COC[C@H](C)Oc1cc(NC(=O)N2CCCc3cc(CN(C)C(C)=O)c(C=O)nc32)ncc1C#N` [(S)-N-(5-cyano-4-((1-methoxypropan-2-yl)oxy)pyridin-2-yl)-7-formyl-6-((N-methylacetamido)methyl)-3,4-dihydro-1,8-naphthyridine-1(2H)-carboxamide], for which the IC50 was 4 nM in assay [1] (setting [2]) and 12.1 nM on Tel-FGFR4 (setting [3]).

As to `COCCNc1cc(NC(=O)N2CCCc3cc(CN4C[C@@H](N(C)C)CC4=O)c(C=O)nc32)ncc1C#N` [(S)-N-(5-cyano-4-((2-methoxyethyl)amino)pyridin-2-yl)-6-((4-(dimethylamino)-2-oxopyrrolidin-1-yl)methyl)-7-formyl-3,4-dihydro-1,8-naphthyridine-1(2H)-carboxamide], the half-inhibitory concentration (IC50) in assay [1] (setting [2]) worked out at 0.6 nM; at Tel-FGFR4 (setting [3]), 5.8 nM.

Turning to `CC(C)Oc1cc(NC(=O)N2CCCc3cc(CN4C[C@@H](N(C)C)CC4=O)c(C=O)nc32)ncc1C#N` [(S)-N-(5-cyano-4-isopropoxypyridin-2-yl)-6-((4-(dimethylamino)-2-oxopyrrolidin-1-yl)methyl)-7-formyl-3,4-dihydro-1,8-naphthyridine-1(2H)-carboxamide], the 50% inhibitory concentration (IC50) in assay [1] (setting [2]) is 0.2 nM; at Tel-FGFR4 (setting [3]), 11.1 nM.

For `N#Cc1cnc(NC(=O)N2CCCc3cc(CN4CC[C@H](O)C4=O)c(C=O)nc32)cc1OCC(F)F` [(S)N-(5-cyano-4-(2,2-difluoroethoxyl)pyridin-2-yl)-7-formyl-6-((3-hydroxy-2-oxopyrrolidin-1-yl)methyl)-3,4-dihydro-1,8-naphthyridine-1(2H)-carboxamide], the IC50 in assay [1] (setting [2]) amounted to 4.8 nM; on Tel-FGFR4 (setting [3]), 13.5 nM.

Consider `O=Cc1ccc2c(n1)N(C(=O)Nc1cc(Cl)c(Cl)cn1)CCC2` [Example 2, N-(4,5-dichloropyridin-2-yl)-7-formyl-3,4-dihydro-1,8-naphthyridine-1(2H)-carboxamide], for which the IC50 in assay [1] (setting [4]) is 30 nM; at Tel-FGFR4 (setting [5]) it was more than 3000 nM.

For `N#Cc1cnc(NC(=O)N2CCCc3ccc(C=O)nc32)cc1C#N` [Example 17, N-(4,5-dicyanopyridin-2-yl)-7-formyl-3,4-dihydro-1,8-naphthyridine-1(2H)-carboxamide], the concentration for half-maximal inhibition (IC50) in assay [1] (setting [4]) was determined as 40 nM; on Tel-FGFR4 (setting [5]) it was 914 nM.

As to `N#Cc1cnc(NC(=O)N2CCCc3ccc(C=O)nc32)cc1Cl` [Example 24, N-(4-chloro-5-cyanopyridin-2-yl)-7-formyl-3,4-dihydro-1,8-naphthyridine-1(2H)-carboxamide], the IC50 was 24 nM in assay [1] (setting [4]) and more than 3000 nM at Tel-FGFR4 (setting [5]).

With `N#Cc1cnc(NC(=O)N2CCCc3ccc(C=O)nc32)cc1C1=CCOCC1` [Example 30, N-(5-cyano-4-(3,6-dihydro-2H-pyran-4-yl)pyridin-2-yl)-7-formyl-3,4-dihydro-1,8-naphthyridine-1(2H)-carboxamide], the values for the IC50 (in assay [1] (setting [4]); at Tel-FGFR4 (setting [5])) were 5.5 nM and 428 nM, respectively.

Consider `CN1CCC2(CCN(c3cc(NC(=O)N4CCCc5cc(CO)c(C=O)nc54)ncc3C#N)CC2)C1` [Example 45, N-(5-cyano-4-(2-methyl-2,8-diazaspiro[4.5]decan-8-yl)pyridin-2-yl)-7-formyl-6-(hydroxymethyl)-3,4-dihydro-1,8-naphthyridine-1(2H)-carboxamide], for which the IC50 in assay [1] (setting [4]) worked out at 21 nM; on Tel-FGFR4 (setting [5]) it was 67 nM.

As to `N#Cc1cnc(NC(=O)N2CCCc3cc(CO)c(C=O)nc32)cc1OC1CCOCC1` [Example 53, N-(5-cyano-4-((tetrahydro-2H-pyran-4-yl)oxy)pyridin-2-yl)-7-formyl-6-(hydroxymethyl)-3,4-dihydro-1,8-naphthyridine-1(2H)-carboxamide], the results for the IC50 (in assay [1] (setting [4]); on Tel-FGFR4 (setting [5])) were 2.9 nM and 36 nM, respectively.

With `COC[C@H](C)Oc1nc(NC(=O)N2CCCc3cc(CO)c(C=O)nc32)ncc1Cl` [Example 58, (S)-N-(5-chloro-4-((1-methoxypropan-2-yl)oxy)pyrimidin-2-yl)-7-formyl-6-(hydroxymethyl)-3,4-dihydro-1,8-naphthyridine-1(2H)-carboxamide], the IC50 worked out at 160 nM in assay [1] (setting [4]) and 898 nM at Tel-FGFR4 (setting [5]).

In the case of `COC[C@@H](C)Oc1nc(NC(=O)N2CCCc3cc(CO)c(C=O)nc32)ncc1Cl` [Example 59, (R)-N-(5-chloro-4-((1-methoxypropan-2-yl)oxy)pyrimidin-2-yl)-7-formyl-6-(hydroxymethyl)-3,4-dihydro-1,8-naphthyridine-1(2H)-carboxamide], the values for the IC50 (in assay [1] (setting [4]); on Tel-FGFR4 (setting [5])) were 48 nM and 105 nM, respectively.

Regarding `O=Cc1nc2c(cc1CO)CCCN2C(=O)Nc1ncc(Cl)c(O[C@H]2CCOC2)n1` [Example 69, (S)-N-(5-chloro-4-((tetrahydrofuran-3-yl)oxy)pyrimidin-2-yl)-7-formyl-6-(hydroxymethyl)-3,4-dihydro-1,8-naphthyridine-1(2H)-carboxamide], the IC50 in assay [1] (setting [4]) came to 54 nM; on Tel-FGFR4 (setting [5]), 95 nM.

Turning to `N#Cc1cnc(NC(=O)N2CCCc3cc(CO)c(C=O)nc32)nc1O[C@H]1CCOC1` [Example 70, (S)-N-(5-cyano-4-((tetrahydrofuran-3-yl)oxy)pyrimidin-2-yl)-7-formyl-6-(hydroxymethyl)-3,4-dihydro-1,8-naphthyridine-1(2H)-carboxamide], the IC50 in assay [1] (setting [4]) came out at 27 nM; on Tel-FGFR4 (setting [5]), 43 nM.

With `O=Cc1nc2c(cc1CO)CCCN2C(=O)Nc1cc(O[C@H]2CCOC2)ccn1` [Example 71, (S)-7-formyl-6-(hydroxymethyl)-N-(4-((tetrahydrofuran-3-yl)oxy)pyridin-2-yl)-3,4-dihydro-1,8-naphthyridine-1(2H)-carboxamide], the concentration for half-maximal inhibition (IC50) in assay [1] (setting [4]) was 810 nM; on Tel-FGFR4 (setting [5]), 1570 nM.

Regarding `O=Cc1nc2c(cc1CO)CCCN2C(=O)Nc1cc(O[C@H]2CCOC2)c(Cl)cn1` [Example 72, (S)-N-(5-chloro-4-((tetrahydrofuran-3-yl)oxy)pyridin-2-yl)-7-formyl-6-(hydroxymethyl)-3,4-dihydro-1,8-naphthyridine-1(2H)-carboxamide], the figures for the IC50 (in assay [1] (setting [4]); at Tel-FGFR4 (setting [5])) were 21 nM and 57.5 nM, respectively.

Consider `O=Cc1nc2c(cc1CO)CCCN2C(=O)Nc1ccc(F)cn1` [Example 76, N-(5-fluoropyridin-2-yl)-7-formyl-6-(hydroxymethyl)-3,4-dihydro-1,8-naphthyridine-1(2H)-carboxamide], for which the 50% inhibitory concentration (IC50) in assay [1] (setting [4]) was 620 nM; at Tel-FGFR4 (setting [5]) it was 1610 nM and > 3000 nM.

As for `CC(C)(O)CNc1cc(NC(=O)N2CCCc3cc(CO)c(C=O)nc32)ncc1C#N` [Example 86, N-(5-cyano-4-((2-hydroxy-2-methylpropyl)amino)pyridin-2-yl)-7-formyl-6-(hydroxymethyl)-3,4-dihydro-1,8-naphthyridine-1(2H)-carboxamide], the IC50 in assay [1] (setting [4]) was 4.9 nM; on Tel-FGFR4 (setting [5]), 12 nM.

As to `N#Cc1cnc(NC(=O)N2CCCc3cc(CO)c(C=O)nc32)cc1OCC(F)(F)F` [Example 89, N-(5-cyano-4-(2,2,2-trifluoroethoxyl)pyridin-2-yl)-7-formyl-6-(hydroxymethyl)-3,4-dihydro-1,8-naphthyridine-1(2H)-carboxamide], the IC50 in assay [1] (setting [4]) is 8.9 nM; at Tel-FGFR4 (setting [5]), 14.5 nM.

Consider `CC(C)Oc1cc(NC(=O)N2CCCc3cc(CN4CCN(C)CC4=O)c(C=O)nc32)ncc1C#N` [Example 92, N-(5-cyano-4-isopropoxypyridin-2-yl)-7-formyl-6-((4-methyl-2-oxopiperazin-1-yl)methyl)-3,4-dihydro-1,8-naphthyridine-1(2H)-carboxamide], for which the results for the 50% inhibitory concentration (IC50) (in assay [1] (setting [4]); at Tel-FGFR4 (setting [5])) were 0.7 nM and 3.3 nM, respectively.

Turning to `CN1CCN(Cc2cc3c(nc2C=O)N(C(=O)Nc2cc(OCCO)c(C#N)cn2)CCC3)C(=O)C1` [Example 199, N-(5-cyano-4-(2-hydroxyethoxyl)pyridin-2-yl)-7-formyl-6-((4-methyl-2-oxopiperazin-1-yl)methyl)-3,4-dihydro-1,8-naphthyridine-1(2H)-carboxamide], the IC50 in assay [1] (setting [4]) was 2.3 nM; at Tel-FGFR4 (setting [5]), 19.3 nM.

With `COCCNc1cc(NC(=O)N2CCCc3cc(CN4CC[N+](C)([O-])CC4=O)c(C=O)nc32)ncc1C#N` (stereo not shown) [Example 222, 4-((8-((5-cyano-4-((2-methoxyethyl)amino)pyridin-2-yl)carbamoyl)-2-formyl-5,6,7,8-tetrahydro-1,8-naphthyridin-3-yl)methyl)-1-methyl-3-oxopiperazine 1-oxide], the half-maximal inhibitory concentration (IC50) was less than 4.8 nM in assay [1] (setting [4]) and 41.3 nM at Tel-FGFR4 (setting [5]).
